Measurements reported in patent US6420367B1, “Pyrimidine derivatives exhibiting antitumor activity” (Shionogo & Co., Ltd., priority 1998, dated 2002).
Converted amounts (≈) assume the structure as drawn.

Assays:
[1] = tested on: DT-C cells (pGV-P-transfected v-ki-ras-transformed NIH3T3 cells); test: Luciferase activity in control DT-C cells (IC50-C): non-specific transcription-inhibitory effect or cytotoxicity; assay type: cell-based, mouse; conditions: tested concentration nearest to 50% inhibition in DT-C cells; index of non-specific transcription inhibition or cytotoxicity
Source text: Test Example 1 Inhibitory Effect Against Cellular Signaling Derived From Ras Oncogene Products
1) Establishment of Cell Lines Used in Assay
Based on the reporter plasmid (pGV-P (Toyo Ink, Japan)), in which luciferase gene was ligated to SV40-derived minimal promoter, we constructed a plasmid designated pRRE3-luc by inserting 3 copies of chemically synthesized oligonucleotides (Sequence: CAGGATATGACTCT, derived from mouse NVL-3 (M. A. Reddy et al.(1992)Mol. Endocrinol., 6, 1051)) into upstream of the promoter. v-ki-ras-transformed NIH3T3 cells (DT cells, provided by Dr. Makoto Noda (Kyoto Univ., School of medicine)) were transfected with this plasmid by liposome-mediated transfection and transfected cell lines stably incorporated and maintained each plasmid were obtained. We named pGV-P and pRRE3-transfected cell line as DT-C and DT-R, respectively and used in the assay described below.
2) Preparation of Samples
i) All the cell lines were cultured in Dulbecco's Modified Essential Medium (DMEM: 10% Fetal Calf Serum(FCS: Hyclone, USA)) including […] kanamycin (Meiji Seika, Japan) in humidified incubator under condition of 5% CO2 at 37° C.
ii) DT-C and DT-R cells were seeded at 2500 cells/well into flat-bottom 96 well multiplate (Sumitomo bakelite) and incubated for 24 hours.
iii) Test compounds were prepared as 1 mg/ml DMSO solution.
iv) The solution of test compounds were added to the culture. Tested compounds are used at the concentration from […] to 0.51 ng/ml with by 3-fold dilution.
v) After 24 hours, the culture supernatant was completely aspirated and […] of cell-lysing solution (PGC-50 (Toyo Ink, Japan)) was added before cells were dried up. In order to the cells were lysed completely, multiwell plates were left at room temperature for 10 to 30 min. The plates were wrapped up and stored at −20° C. till the day of measurement.
3) Measurement of Samples
i) Melt the samples by putting 96 well multiplate at 37° C. and add 90 μl/well 25 mM Tris (pH 7.5).
ii) Transfer 50 μl of the sample (110 μl) to the 96 well microplate for measurement (Microlite 1 (Dynatech)).
iii) Measure the samples by the luminometer, LUMINOUS CT9000D (Dia-Yatron, Japan). We used Pickagene luminescence kit PGL2000 or LT2.0 (Toyo Ink, Japan) as substrates for luminescence measurement (50 μl/well).
4) Judgment of the Results
i) The luciferase activity of DT-C cells and DT-R cells were plotted in the graph where the relative activity and the compound concentration were expressed as Y-axis and X-axis, respectively. We judged by the degree of dissociation between the activities of DT-C cells and DT-R cells as an index.
ii) Concretely, efficacy of the compound was expressed by two values described below.
b) Among the points of concentration tested, the concentration which is the nearest to 50% inhibition concentration at DT-C cells (IC50-C), was shown as an index of non-specific transcription-inhibitory effect or of cytotoxicity. In case of positive compounds, 50% inhibition concentration above the area of active concentration in DT-C cells was expressed as IC50-C.

[2] = tested on: DT-R cells (pRRE3-luc-transfected v-ki-ras-transformed NIH3T3 cells); signal derived from Ras oncogene products; test: Inhibitory effect against cellular signaling derived from Ras oncogene products: luciferase reporter, dissociation of DT-R from DT-C activity (MAC); assay type: cell-based, mouse; conditions: minimal tested concentration at which luciferase activities of DT-C cells and DT-R cells dissociated
Summary of the method: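 DT-R (pRRE3-luc) and control DT-C (pGV-P) v-Ki-ras NIH3T3 cells were exposed 24 h to compound in 3-fold dilutions in DMEM/10% FCS at 37 °C, then lysed for luciferase luminescence. MAC is the lowest tested concentration at which DT-R and DT-C activities dissociate.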

human colon cancer HT29 = test: In vitro cell growth inhibition test, MTT assay; assay type: cell-based; conditions: MTT assay 4 days after compound addition
Summary of the method: (§1)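 In vitro testing uses the MTT assay. The same panel includes human pancreas cancer PANC-1.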

[3] = tested on: human squamous lung cancer RERF-RC-AI; test: In vitro cell growth inhibition test, MTT assay; assay type: cell-based; conditions: MTT assay 4 days after compound addition
Summary of the method: as §1

[4] = tested on: human pancreas cancer PANC-1; test: In vitro cell growth inhibition test, MTT assay; assay type: cell-based; conditions: MTT assay 4 days after compound addition
Summary of the method: as §1

[5] = tested on: human squamous lung cancer Ma44; test: In vitro cell growth inhibition test, MTT assay; assay type: cell-based; conditions: MTT assay 4 days after compound addition
Summary of the method: as §1

[6] = tested on: human lung adenocarcinoma A549; test: In vitro cell growth inhibition test, MTT assay; assay type: cell-based; conditions: MTT assay 4 days after compound addition
Summary of the method: as §1

| Compound | IC50-C [1] [µg/mL] | MAC (Minimal Active Concentration) [2] [µg/mL] | IC50, HT29 (human colon cancer HT29) [µg/mL] | IC50, RERF-LC-AI [3] [µg/mL] | IC50, PANC-1 [4] [µg/mL] | IC50, Ma44 [5] [µg/mL] | IC50, A549 [6] [µg/mL] |
| --- | --- | --- | --- | --- | --- | --- | --- |
| CCNC(=Nc1nc(C)ncc1CSc1nnc(-c2ccc(OC)cc2)o1)NCC [Compound A-73] | >10 | 0.123 | 0.016 (≈ 0.0374 µM) | 0.012 (≈ 0.0281 µM) | 0.029 (≈ 0.0678 µM) | 0.048 (≈ 0.112 µM) | 0.052 (≈ 0.122 µM) |
| CCNC(=Nc1nc(CC)ncc1CSc1nnc(-c2ccc([N+](=O)[O-])cc2)o1)NCC [Compound A-131] | >10 | 0.0412 | 0.025 (≈ 0.0548 µM) | 0.015 (≈ 0.0329 µM) | 0.028 (≈ 0.0613 µM) | 0.028 (≈ 0.0613 µM) | 0.03 (≈ 0.0657 µM) |
| CCNC(=Nc1ncncc1CSc1nnc(-c2ccccc2N)o1)NCC [Compound A-33] | >10 | 0.0137 | 0.0071 (≈ 0.0178 µM) | 0.004 (≈ 0.01 µM) | 0.0076 (≈ 0.0191 µM) | 0.0087 (≈ 0.0218 µM) | 0.012 (≈ 0.0301 µM) |
| CNC(=Nc1nc(C)ncc1CSc1nnc(-c2ccc([N+](=O)[O-])cc2OC)o1)NC [Compound A-162] | >10 | 0.123 | 0.0067 (≈ 0.0151 µM) | 0.0085 (≈ 0.0191 µM) | 0.0093 (≈ 0.0209 µM) | 0.014 (≈ 0.0315 µM) | 0.028 (≈ 0.063 µM) |
| CCNC(=Nc1ncncc1CSc1nnc(-c2ccc([N+](=O)[O-])cc2)o1)NC(C)C [Compound A-121] | >10 | <0.000508 | 0.02 (≈ 0.0452 µM) | 0.02 (≈ 0.0452 µM) | 0.02 (≈ 0.0452 µM) | 0.02 (≈ 0.0452 µM) | 0.058 (≈ 0.131 µM) |
| CCNC(=Nc1ncncc1CSc1nnc(-c2ccncc2)o1)NCC [Compound D-41] | >10 | 1.11 | 0.04 (≈ 0.104 µM) | 0.024 (≈ 0.0624 µM) | 0.049 (≈ 0.127 µM) | 0.055 (≈ 0.143 µM) | 0.07 (≈ 0.182 µM) |
| CCCNC(=Nc1nc(C)ncc1CSc1nnc(-c2ccc(C)cc2)o1)NCCC [Compound A-143] | 1.11 (≈ 2.53 µM) | 0.0412 | 0.024 (≈ 0.0546 µM) | 0.023 (≈ 0.0523 µM) | 0.02 (≈ 0.0455 µM) | 0.033 (≈ 0.0751 µM) | 0.052 (≈ 0.118 µM) |
| CCNC(=Nc1nc(C)ncc1CSc1nnc(-c2ccc(N)nc2)o1)NCC [Compound D-6] | >10 | 0.370 | 0.039 (≈ 0.0943 µM) | 0.037 (≈ 0.0895 µM) | 0.085 (≈ 0.206 µM) | 0.32 (≈ 0.774 µM) | 0.33 (≈ 0.798 µM) |
| CCCNC(=Nc1nc(C)ncc1CSc1nnc(-c2ccc([N+](=O)[O-])cc2)o1)NC [Compound A-146] | >10 | 0.0137 | 0.014 (≈ 0.0316 µM) | 0.011 (≈ 0.0249 µM) | 0.024 (≈ 0.0542 µM) | 0.052 (≈ 0.118 µM) | 0.18 (≈ 0.407 µM) |
| CCNC(=Nc1nc(C)ncc1CSc1nnc(-c2ccc([N+](=O)[O-])cc2)o1)NCC(F)(F)F [Compound A-175] | 3.33 (≈ 6.71 µM) | 0.0137 | 0.01 (≈ 0.0201 µM) | 0.0053 (≈ 0.0107 µM) | 0.01 (≈ 0.0201 µM) | 0.015 (≈ 0.0302 µM) | 0.017 (≈ 0.0342 µM) |
